{"source": "patent US4159384A", "about": "“Phenenyltris (carbonylimino)multi-anionic substituted triphenyl acids and salts” (American Cyanamid Company, priority 1978, dated 1979)", "test_system": "shunt pathway", "assay": "Test, Code 036 (C-Shunt inhibitor): lysis of fragile human erythrocytes in autologous serum, cobra venom factor", "type": "biochemical", "conditions": "in vitro, appropriate dilutions of the test compound", "source_text": "An active inhibitor protects C2 from C1 and C4; (ii) Test, Code 035 (C3-C9 inhibitor)--This test determines the ability of the late components of human complement (C3-C9) to lyse EAC 142 in the presence of appropriate dilutions of the test compound. An active inhibitor protects EAC 142 from lysis by human C3-C9; (iii) Test, Code 036 (C-Shunt inhibitor)--In this test human erythrocytes rendered fragile are lysed in autologous serum via the shunt pathway activated by cobra venom factor in the presence of appropriate dilutions of the test compound. Inhibition of the shunt pathway results in failure of lysis; (iv) Forssman Vasculitis Test--Here, the well known complement dependent lesion, Forssman vasculitis, is produced in guinea pigs by intradermal injection of rabbit anti-Forssman antiserum. […]", "note": "Counter-ions that a name gives are not always drawn.", "data": [{"smiles": "O=C(Nc1cc(C(=O)O)c(O)c(S(=O)(=O)O)c1)c1cc(C(=O)Nc2cc(C(=O)O)c(O)c(S(=O)(=O)O)c2)cc(C(=O)Nc2cc(C(=O)O)c(O)c(S(=O)(=O)O)c2)c1", "note": "[5,5',5\"-[s-Phenenyltris(carbonylimino)]tri-3-sulfo salicylic acid trisodium salt]", "values": [{"measurement": "Shunt Inhibition 036 Wells", "result": "+1 Wells"}]}]}
